As usually defined, the melting point is the temperature of the solid-liquid transition.

In the case of `O=C(Cl)c1cccc2ccccc12`, the melting point turned out to be 26 °C.
The same measure for `Cc1nc2ccccc2n1CCc1nnc(SCc2ccccc2)n1-c1ccccc1`: 130 °C; for `Cc1cc(=O)oc2cc(O)ccc12`: 194 °C.
For the compound `CC(=O)c1ccccc1[N+](=O)[O-]`, the melting point was 28.5 °C.
For `CCOC(=O)c1cc(-c2ccco2)[nH]n1`, the melting point is 137 to 138 °C.
For `Nc1cc(C(F)(F)F)cc(C(F)(F)F)c1Br` the value was 35 °C.
For `O=C(O)C(F)(F)C(F)(F)C(F)(F)C(F)(F)C(F)(F)C(F)(F)C(F)(F)C(F)F` the value was 67 °C; for `CCOC(=O)NNC(=O)Nc1ccc(Cl)cc1`, 194 °C.
For `CC12CCC=C1C1CCC3=CC(=O)CCC3(C)C1CC2` (stereo unspecified) the value was 117 °C.
Compound `O=c1oc2ccccc2c(O)c1C1CC(c2ccc(-c3ccc(Br)cc3)cc2)Cc2ccccc21` (stereo unspecified) returned a melting point of 230 °C.
In turn, `[O-][P+](c1ccccc1)(c1ccccc1)C1c2ccccc2Oc2ccccc21` showed a melting point of 161 °C.
`CCOc1cccc(OCC(F)(F)F)c1C#N` returned a melting point of 78 to 80 °C.
For `Brc1ccc2c(c1)OCCOCCOCCOCCO2` the value was 66 to 71 °C; for `c1cc2c3c(cccc3c1)-c1nc3ccccc3nc1-2`, 239 to 242 °C; for `CCOC(=O)C1=C(C)NC(C)=C(C(=O)OCC)C1c1ccc2c(c1)OCO2`, 135 °C.
The same measure for `CN(C)CCN1C(=O)c2ccccc2N(C)c2ccccc21`: 116 °C.
The same measure for `CCOC(=O)C(N)=S`: 63 °C; for `Cc1ccc(S(=O)(=O)N2C(C)C2c2ccccc2)cc1` (stereo unspecified): 188 to 190 °C; for `O=C(NCCNC(=O)c1ccccc1)c1ccccc1`: 244 °C.
`O=C(O)c1cc(Cl)c(C(=O)O)cc1Cl`: the melting point worked out at 306 °C.
The same measure for `CC1CCC(C)(COC(=O)C2C(=O)C3(C)CCC2C3(C)C)C1(C)C` (stereo unspecified): 146 °C.
For `C=CC1CN2CCC1CC2C(=O)c1ccnc2ccc(OC)cc12` (stereo unspecified) the value was 108 °C.
The same measure for `CC(C)(C)c1ccc(S(=O)(=O)NCCBr)cc1`: 76 to 78 °C.
`Cc1cccc(/N=N/c2c(N)nn3c(C(F)(F)F)cc(=O)[nH]c23)c1` yielded a melting point of 280 °C.
`O=C(NC(=O)c1c(F)cccc1F)Nc1ccc(OC(F)(F)C(F)OC(F)(F)F)c(Cl)c1` (stereo unspecified) registered a melting point of 178 °C.
The compound `CC(=O)OC1=C(C)C2(OC(C)=O)CCC1C1C(=O)NC(=O)C12` (stereo unspecified) had a melting point of 161 to 162 °C.
For `Oc1ccc(-c2ccccc2)cc1Cl` the value was 77 °C; for `NC(=O)OCC(COC(N)=O)c1ccccc1`, 151 °C; for `O=C(CCCN1CCC(O)(c2ccc(Cl)cc2)CC1)c1ccc(F)cc1`, 148 °C.
The same measure for `COc1ccc(CC(N)=O)cc1`: 186 °C; for `CC(=O)O[C@@H](C(=O)O)c1ccccc1`: 97 °C.
For `ClCCCc1ccccc1` the value was -27 °C.
Turning to `C#CC1(O)CCC2C3CCC4CCCCC4(C)C3CCC21C` (stereo unspecified), the melting point was 155 °C.
For `O=C(NCc1ccccc1)c1cccnc1Cl` the value was 120 °C; for `CC1=C(C(=O)OC(C)C)C(c2ccco2)NC(=O)N1` (stereo unspecified), 205 °C.
The same measure for `Cc1cc(/C=C/c2ccccc2N)c(N)cc1N`: 151 °C; for `Cc1ccc(NC=CC(=O)c2ccc3c(c2)CCCC3)cc1`: 139 °C.
For `O=C(O)C1CCCNC1` (stereo unspecified) the value was 246 to 253 °C.
Consider `COc1ccc(OCC(=O)O)cc1`, for which the melting point fell in the range of 112 to 114 °C.
For `C[Si](C)(Cl)C(Cl)Cl` the value was -48 °C; for `CC(=O)Nc1cc([N+](=O)[O-])c(/C=C/c2ccccc2)c([N+](=O)[O-])c1/C=C/c1ccccc1`, 171 °C; for `c1ccc(C2=C(c3ccccc3)NC(c3ccncc3)N2)cc1`, 255 to 265 °C.
For `O=C(O)C1(C(=O)O)CCC1`, the melting point was in the range of 157 to 161 °C.
`N#Cc1cc(F)ccc1F` showed a melting point of 33 to 35 °C.
The compound `CCOC(=O)c1cc2c(=O)oc3ccccc3c2nc1N` had a melting point of 192 °C.
Take `O=Cc1cccc([N+](=O)[O-])c1O`: the melting point amounted to 110 °C.
For `CC(=O)OC1CCC2C3CCC45OC4C(=O)C=CC5(O)C3CCC12C` (stereo unspecified) the value was 178 °C; for `CC1=CC1`, -100 °C; for `O=C1CCCN1c1ccccc1`, 66 °C.
The same measure for `Nc1nc(F)cc(C(F)(F)F)c1F`: 67 °C.
For `COc1ccc(C=O)c(C)c1C` the value was 53 °C.
For `S=C=Nc1ccc(Oc2ccccc2)cc1`, the melting point came to 42 °C.
The same measure for `O=C(C=NNc1ccccc1)c1ccc(C(=O)C=NNc2ccccc2)c([N+](=O)[O-])c1`: 100 °C.
The same measure for `Oc1ccc(O)c(O)c1`: 140 °C; for `COc1cc(F)c(F)cc1OC`: 40 °C; for `NC(CSc1ccccn1)=NO`: 100 °C.
In turn, `CC1(C)C(=O)OC2=C(CCCC2=Cc2ccccc2)C1c1ccccc1` (stereo unspecified) returned a melting point of 155 to 157 °C.
The compound `CSC(=CC(=C(C#N)C#N)c1ccc(Cl)cc1)SC` displayed a melting point of 106 to 110 °C.
The compound `N#C/C(=N\Nc1ccc(O)cc1)c1nc2ccccc2[nH]1` yielded a melting point of 255 °C.
For `Oc1cccc(Cl)c1O` the value was 48.5 °C.
For `CC1(C)C(C(=O)OC(C#N)c2cccc(Oc3ccccc3)c2)C1(C)C` (stereo unspecified) the value was 47.5 °C; for `NC(=O)N1c2ccccc2CCc2ccccc21`, 205 °C; for `CCCCNCC(=O)Nc1c(C)cccc1Cl`, 45.5 °C.
The same measure for `NC(=S)Nc1ccc(C(F)(F)F)cc1`: 144 to 145 °C; for `CCCCNC(=O)NS(=O)(=O)c1ccccc1`: 131 °C; for `C/C(=N\NC(N)=O)C1CC2(C)CCC1C2(C)C` (stereo unspecified): 236 °C.
As for `CCCCCCCCCCCCCCCC(=O)OC1CCC2(C)C(=CCC3C2CCC2(C)C(C(C)CCCC(C)C)CCC32)C1` (stereo unspecified), the melting point fell in the range of 75 to 77 °C.
The same measure for `CC(=O)OCCOc1cc(OCCOC(C)=O)c([N+](=O)[O-])cc1[N+](=O)[O-]`: 91 °C.
The compound `O=C(O)c1ccc(Oc2ccccc2)o1` showed a melting point of 126 to 127 °C.
For `O=C(Nc1cccc(N=Nc2cccc(NC(=O)c3ccccc3)c2)c1)c1ccccc1` the value was 285 °C; for `NC[C@H]1CC[C@H](C(=O)O)CC1`, 300 °C.
Regarding `Cc1cccc(/N=N/c2c(N)nn3c(C(F)(F)F)cc(C)nc23)c1`, the melting point stood at 209 °C.
The same measure for `CCn1ccc2ccccc21`: 105 °C.
The same measure for `Nc1ccc(C#Cc2ccc(N)cc2)cc1`: 235 to 236 °C.
`O=C(Nc1ccccc1)OCc1ccccc1[N+](=O)[O-]`: the melting point was 141 °C.
`CCOC(=O)C(=O)CC(C)=O`: the melting point lay within 16 to 18 °C.
For `CCCS(=O)(=O)O` the value was 8 °C.
For `Cc1ccn2nc(S(=O)(=O)Nc3c(F)cccc3F)nc2n1` the value was 252 °C; for `CC1(C)CCC(Cc2ccc(Cl)cc2)C1(O)Cn1cncn1` (stereo unspecified), 112 °C.
For `Cc1ccnc(Nc2nc3ccccc3[nH]2)c1` the value was 279 to 281 °C; for `O=C=Nc1ccc(Cl)c([N+](=O)[O-])c1`, 66 °C; for `O=C(O)CCOc1ccc(Cl)cc1`, 136 to 137 °C.
Regarding `NS(=O)(=O)c1ccc(SCCCCO)cc1`, the melting point stood at 101 °C.
For `N#Cc1cccc(C[C@H](NC(=O)OCC2c3ccccc3-c3ccccc32)C(=O)O)c1` the value was 116 °C.
In turn, `CC(C)c1cc(C(C)C)c(S(=O)(=O)N=[N+]=[N-])c(C(C)C)c1` showed a melting point of 42 °C.
For `NC(=S)c1ccsc1` the value was 96 to 98 °C; for `Cc1cccc2c1C(=O)OC2=O`, 116 °C.
For `COc1ccc(C(=O)c2noc(-c3ccccc3)c2S(=O)(=O)c2ccccc2)cc1` the value was 161 °C.
The same measure for `CC(=O)OCC(=O)C12OC(C)(C)OC1CC1C3CC(C=O)=C4C=C(OCCCl)CCC4(C)C3(F)C(O)CC12C` (stereo unspecified): 181 °C; for `CC(C)(C)c1ccc2c(c1)C(=O)c1ccccc1C2=O`: 99 °C.
`Fc1cc(CBr)ccc1Cl` returned a melting point of 32 °C.
On to `O=Cc1ccc(-c2ncccn2)cc1`, for which the melting point lay in the range of 108 to 109 °C.
For `CC(=O)CCc1ccccc1` the value was -13 °C.
For `O=C1c2ccccc2C(=O)c2cc(CO)ccc21` the value was 192 to 197 °C; for `CN(C)C1=C(C=C(c2ccc(F)cc2)c2ccc(F)cc2)C(=O)N(c2ccccc2)C1=O`, 157 °C; for `Cc1sc(N)nc1-c1ccccc1`, 110 °C.
As for `c1n[nH]c2c1CSC2`, the melting point was in the range of 132 to 133 °C.
For `COc1ccc(-c2ccc(S(=O)(=O)Cl)cc2)cc1` the value was 103 to 106 °C; for `O=C1CC(=P(c2ccccc2)(c2ccccc2)c2ccccc2)C(=O)O1`, 167 °C.
The same measure for `CC1CCC(C(C)C)C(OC(=O)c2ccc3ccccc3c2)C1` (stereo unspecified): 76 °C; for `CC(=O)N(C)C(C)=O`: -25 °C; for `C=C1C(=O)C23C(OC)CC4C5(C)CCCC4(COC5)C2C(O)CC1C3O` (stereo unspecified): 288 °C.
Take `CCCCN(CCCC)CCCN`: the melting point is -50 °C.
The same measure for `CCCOCCC`: -122 °C.
The same measure for `CCOC(=O)C1=C(C)NC(=O)NC1c1cccc(Cl)c1Cl` (stereo unspecified): 243 °C.
For `CN1C(=O)C(=NNc2cccc(Cl)c2)C(=O)N(C)C1=O` the value was 202 °C.
